Measured values from patent US20250129093A1, “COMPOSITIONS AND METHODS RELATING TO ATP/P2X7R SIGNALING INHIBITION” (THE CHILDREN'S MEDICAL CENTER CORPORATION, priority 2022, published 2025).
“Also recorded” adds a separate entry of the source.

Columns and labels:
[1] = test system: P2X7R signaling through eATP; test: BzATP-stimulated CD4+ T cells from human PBMCs, expression of Th2-related factors; format: cell-based; conditions: for inhibition of activation of P2X7R signaling through eATP (expression of Th2-related factors IL-4 and IRF4): human CD4+ T cells stimulated with benzoyl ATP (BzATP)
Description: Peripheral blood mononuclear cell (PBMCs) were isolated from collected human blood samples and recovered CD4+ T cells were purified and treated with different compounds. In particular cells were activated upon stimulation with benzoyl ATP (BzATP) and treated with human P2X7R inhibitor CE-224,535, P2X7 receptor antagonist oATP and the 6 small molecules identified in the bioinformatics and HTVS approaches above.

[2] = test system: P2X7R signaling through eATP; conditions: cells of individuals who do not carry the P2X7R mutation; cited from earlier work
C57BL6 (B6) mice = test: Survival (longevity) of C57BL6 (B6) mice; format: in vivo; conditions: 7.5 mg/Kg
Description: Given that administration of P2X7R inhibitors is associated with a slow-down of metabolic processes within activated cells/tissues (9) and the effect of eATP in favoring cell senescence, it is contemplated herein that this mechanism could be responsible for promoting longevity and prolonging survival.

[3] = test system: CD4+ T cells obtained from individuals carrying the P2X7R mutation; test: Th17 generation in vitro in CD4+ T cells from individuals carrying the P2X7R mutation; format: cell-based, human; conditions: inhibitor added to the cell culture, carriers of P2X7R mutation rs3751143
Description: (§1) The P2X7R mutation rs3751143 is associated with the development of increased immunological events, particularly with the development of a HyperTh-17 syndrome, which is mainly characterized by an imbalance between T-helper cells which favors generation of Th-17 cells.

[4] = test system: P2X7R−/− mice receiving a Bm12 heart; test: Heart allograft survival in P2X7R-/- mice receiving a Bm12 heart; format: in vivo; conditions: Bm12 heart transplant, p=0.04
Description: as §1

In the case of `COc1ccc(/C=N\Nc2cc(C)nc(NCc3ccccc3)n2)c(OC)c1` [Compound #5, Benzyl-{4-[N′-(2,4-dimethoxy-benzylidene)-hydrazino]-6-methyl-pyrimidin-2-yl}-amine], the “effect on the expression of Th2-related factors GATA3, IL-4 and IRF4” value ([1]; PBMCs, FIG. 2, compared with CE-224,535 and oATP) was “effect comparable to that of human P2X7R inhibitor CE-224,535 and P2X7 receptor antagonist oATP” and the “inhibition of activation of P2X7R signaling through eATP (expression of Th2-related factors IL-4 and IRF4)” value (shortened to “inhibition”) [1] was “significative ability to inhibit the activation of P2X7R signaling”.
With `O=C(O)c1ccccc1-c1ccccc1C(=O)Nc1cccc(-c2nc3ccccc3[nH]2)c1` [compound 6, 2′-[3-(1H-Benzoimidazol-2-yl)-phenylcarbamoyl]-biphenyl-2-carboxylic acid] the “inhibition” value [1] was “significative ability to inhibit the activation of P2X7R signaling”.
For `Nc1ncnc2c1ncn2[C@@H](C=O)O[C@@H](C=O)COP(=O)(O)OP(=O)(O)OP(=O)(O)O` [oATP], the “neutralizing activation of P2X7R signaling through eATP” value [2] is listed as “capable of neutralizing activation of P2X7R signaling”, the MST (C57BL6 (B6) mice) is listed as 19.5 weeks and the treated animals alive (C57BL6 (B6) mice; at 17 weeks) is listed as 60%. For the same compound, the “survival as compared to untreated controls” value (C57BL6 (B6) mice; p=0.01, 7.5 mg/kg) was “significantly prolongs survival; also recorded: increased survival”, the Th17 generation [3] was “at least partially inhibited; also recorded: partially abrogated” and the allograft survival [4] was “significantly prolongs allograft survival”.
In the case of `OC(CNCc1ccccc1)COc1ccc(OCC(O)CNCc2ccccc2)cc1` (centres unmarked) [compound 3, 1-Benzylamino-3-[4-(3-benzylamino-2-hydroxy-propoxy)-phenoxy]-propan-2-ol], the “inhibition” value [1] was “significative ability to inhibit the activation of P2X7R signaling”.
For `Cc1ccccc1Nc1nc2nonc2nc1N/N=C\c1cccc2ccccc12` [compound 4, [6-(N′-Naphthalen-1-ylmethylene-hydrazino)-[1,2,5]oxadiazolo[3,4-b]pyrazin-5-yl]-o-tolyl-amine], the “inhibition” value [1] was “significative ability to inhibit the activation of P2X7R signaling”.
